How the values were obtained:
[1] = target: T1, human oestrogenic receptor (Homo sapiens, UniProt P03372); settings: Milligan et al.; cited from earlier work
T1 construct: host or cells: yeast cells
T1 sequence (P03372 1-595): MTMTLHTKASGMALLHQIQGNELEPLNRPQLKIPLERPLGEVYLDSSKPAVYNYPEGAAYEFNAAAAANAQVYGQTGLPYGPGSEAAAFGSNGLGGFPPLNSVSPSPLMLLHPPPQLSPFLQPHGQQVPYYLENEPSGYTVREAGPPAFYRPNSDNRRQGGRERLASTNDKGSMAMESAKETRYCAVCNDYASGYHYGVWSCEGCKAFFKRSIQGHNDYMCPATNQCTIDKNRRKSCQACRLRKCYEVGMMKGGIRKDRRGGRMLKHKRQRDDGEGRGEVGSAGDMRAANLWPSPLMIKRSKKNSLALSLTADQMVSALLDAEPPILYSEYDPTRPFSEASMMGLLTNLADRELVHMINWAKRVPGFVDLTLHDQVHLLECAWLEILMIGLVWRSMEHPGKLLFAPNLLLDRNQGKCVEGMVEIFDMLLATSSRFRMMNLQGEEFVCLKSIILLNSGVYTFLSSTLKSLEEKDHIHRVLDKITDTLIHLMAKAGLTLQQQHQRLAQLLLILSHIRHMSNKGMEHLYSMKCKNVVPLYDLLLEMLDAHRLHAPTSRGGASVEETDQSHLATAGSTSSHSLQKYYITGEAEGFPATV

[2] = target: T2, human oestrogenic receptor alpha (ER-α) (Homo sapiens, UniProt P03372); test: competitive receptor binding assay, displacement of radioactively labelled oestradiol, ER-α; settings: for relative potency [formula] (ratio ER-α to ER-β): head is a formula, values fit relative potency ER-α / ER-β
T2 sequence (P03372 1-595): T1 sequence (P03372 1-595)
Procedure: Thereby, a radioactively labelled oestradiol was initially bonded to the human oestrogen receptor and then treated with the test substance to be examined. A portion of the labelled oestradiol which corresponds to the oestrogenic potency of the sample is thus displaced. Excessive oestradiol is washed out after bonding of the complex to hydroxylapatite. The oestrogenic receptors ER-α and ER-β were commercially available as recombinant human receptors. The test preparations consisted of 1000 μl TEDG buffer (10 mM tris, 1,5 mM EDTA, 10% glycerol, pH 7.5), 5 μl receptor (200 nM), 10 μl 3H-oestradiol and 10 μl ethanol (control value), 10 μl diethylstiloestrol (100 mM, positive control) or 10 μl extract or ingredient of the extract, respectively. The preparations were carefully mixed and incubated for about 16 hours at room temperature in the dark. After incubation 250 μl hydroxylapatite (HAP) were added to absorb the proteins. During a period of incubation of 15 minutes the preparations were manually mixed with a time-lag of 5 minutes, respectively. The precipitate is separated by centrifugation at 10,000 rpm for a few seconds and the supernatant liquid is separated by pipetting. The pellet is washed three times with 1000 μl TEDG buffer, respectively, 1000 μl ethanol are added for the measurement, the mixture is slurried and transferred to a scintillation vial. After adding 9 ml scintillator liquid (Ready Safe, Beckmann) a measurement over the complete ^3H window is carried out using a Beckmann Beta-Counter.
The characterisation of the bonding capacities of the test substances results from the determination of the ED50 values taken from the dosis-effect-plots of the displacement of oestradiol.

Ishikawa-Var-I-cells = settings: cited from earlier work
ovariectomised rats = settings: Miyamoto et al. 1998; cited from earlier work
[3] = test system: colon cancer cell lines HAT-29; settings: Miranda et al. 1999; cited from earlier work
[4] = test system: human breast cancer cells MCF-7; settings: Miranda et al. 1999; cited from earlier work
[5] = test system: ovarian cancer cell lines A-2780; settings: Miranda et al. 1999; cited from earlier work
osteolysis = settings: EP 0 679 393 B1; cited from earlier work

Row | Structure (SMILES) | oestrogenic activity, human oestrogenic receptor in yeast [1] | relative potency [formula] (ratio ER-α to ER-β) [2] | antiproliferative activity [3] | antiproliferative activity [4] | antiproliferative activity [5] | interaction with ER-α, in words [2] | also measured
1 | CC(C)=CCc1c(O)cc2c(c1O)C(=O)C[C@@H](c1ccc(O)cc1)O2 | weaker oestrogenic properties | 0.37 |  |  |  |  | 
2 | CC(C)=CCc1c(O)cc(O)c2c1O[C@H](c1ccc(O)cc1)CC2=O | most powerful oestrogenic activity | 2.72 |  |  |  |  | oestrogenic activity in vitro, stimulating alkaline phosphatase (Ishikawa-Var-I-cells; Ishikawa-Var-I-cells, Milligan et al. 1999): significantly more active than the phytooestrogenes known so far; osseous density (ovariectomised rats): normalises; weight of the uterus (ovariectomised rats): normalises
3 | CC(C)=CCc1c(O)c(CC=C(C)C)c2c(c1O)C(=O)C[C@@H](c1ccc(O)cc1)O2 [6,8-diprenylnaringenine] | weaker oestrogenic properties |  |  |  |  |  | 
4 | CC(C)=CCC/C(C)=C/Cc1c(O)cc(O)c2c1O[C@H](c1ccc(O)cc1)CC2=O [8-geranylnaringenine] | weaker oestrogenic properties |  |  |  |  |  | 
5 | COc1cc(O)c(CC=C(C)C)c2c1C(=O)CC(c1ccc(O)cc1)O2 (stereo not shown) [Isoxanthohumol, isoxanthohumol] |  | 0.54 | strong antiproliferative activity | strong antiproliferative activity | strong antiproliferative activity | comparable activity | 
6 | COc1cc(O)c(CC=C(C)C)c(O)c1C(=O)/C=C/c1ccc(O)cc1 [Xanthohumol] | could not be detected | 0.78 | strong antiproliferative activity | strong antiproliferative activity | strong antiproliferative activity | comparable activity | effect on osteolysis (osteolysis): inhibiting effect; oestrogenic activity in human endometrial carcinoma cell line Ishikawa (Ishikawa-Var-I-cells; Milligan et al.): could not be detected

From US20050042318A1, “Extracts from hop, methods for producing the same and their use” (priority 2001, published 2005)
